Assay results as given in ChEMBL document CHEMBL1138549, “Synthesis of new 2-substituted pyrido[2,3-d]pyrimidin-4(1H)-ones and their antibacterial activity” (2009).
Values after ≈ are worked out from the molar mass of the structure shown. Active and inactive are the calls of the source. No cut-off for these calls is given here.

Columns and labels:
MCF7 = test: Cytotoxicity against human MCF7 cells up to 150 ug/ml; format: functional, cell-based
Staphylococcus aureus = test: Antibacterial activity against Staphylococcus aureus MTCC 96 after 24 hrs by NCCLS M7-A5 method; format: functional; conditions: MTCC 96, 24 h
Klebsiella pneumoniae = test: Antibacterial activity against Klebsiella pneumoniae MTCC 109 after 24 hrs by NCCLS M7-A5 method; format: functional; conditions: MTCC 109, 24 h
Candida albicans = test: Antifungal activity against Candida albicans at 200 ug/ml; format: functional, organism-based
Bacillus subtilis = test: Antibacterial activity against Bacillus subtilis MTCC 441 after 24 hrs by NCCLS M7-A5 method; format: functional; conditions: MTCC 441, 24 h
Aspergillus niger = test: Antifungal activity against Aspergillus niger at 200 ug/ml; format: functional, organism-based
Escherichia coli = test: Antibacterial activity against Escherichia coli MTCC 722 after 24 hrs by NCCLS M7-A5 method; format: functional; conditions: MTCC 722, 24 h

SMILES | Activity (MCF7) | MIC (Staphylococcus aureus) [µg/mL] | MIC (Klebsiella pneumoniae) [µg/mL] | Activity (Candida albicans) | MIC (Bacillus subtilis) [µg/mL] | Activity (Aspergillus niger) | MIC (Escherichia coli) [µg/mL]
Cc1cc(C)c2c(=O)[nH]c(-c3cccc(C)c3C)nc2n1 | Not toxic | 12.5 (≈ 44.7 µM) | 50 (≈ 179 µM) | inactive | 12.5 (≈ 44.7 µM) | inactive | 12.5 (≈ 44.7 µM)
O=C(O)c1cn(C2CC2)c2cc(N3CCNCC3)c(F)cc2c1=O [CIPROFLOXACIN] |  | 0.39 (≈ 1.18 µM) | 0.78 (≈ 2.35 µM) |  | 0.78 (≈ 2.35 µM) |  | 
Cc1cc(C)c2c(n1)NC(c1cccc(C)c1C)NC2=O (configuration not stated) | Not toxic | 12.5 (≈ 44.4 µM) | 25 (≈ 88.9 µM) | inactive | 6.25 (≈ 22.2 µM) | inactive | 12.5 (≈ 44.4 µM)
COc1cc(C2NC(=O)c3c(C)cc(C)nc3N2)ccc1O (configuration not stated) | Not toxic | 1.25 (≈ 4.18 µM) | 50 (≈ 167 µM) | inactive | 12.5 (≈ 41.8 µM) | inactive | 50 (≈ 167 µM)
CC(=O)Oc1ccc(C2NC(=O)c3c(C)cc(C)nc3N2)cc1 (configuration not stated) | Not toxic | 12.5 (≈ 40.1 µM) | 50 (≈ 161 µM) | inactive | 6.25 (≈ 20.1 µM) | inactive | 25 (≈ 80.3 µM)
Cc1cc(C)c2c(n1)NC(c1cccc(Cl)c1Cl)NC2=O (configuration not stated) | Not toxic | 50 (≈ 155 µM) | 100 (≈ 310 µM) | inactive | 25 (≈ 77.6 µM) | inactive | 
COc1ccc(-c2nc3nc(C)cc(C)c3c(=O)[nH]2)c(O)c1 | Not toxic | 50 (≈ 168 µM) | 50 (≈ 168 µM) | inactive | 50 (≈ 168 µM) | inactive | 50 (≈ 168 µM)
CC(=O)Oc1ccc(-c2nc3nc(C)cc(C)c3c(=O)[nH]2)cc1 | Not toxic | 25 (≈ 80.8 µM) | 50 (≈ 162 µM) | inactive | 25.5 (≈ 82.4 µM) | inactive | 25 (≈ 80.8 µM)
Cc1cc(C)c2c(=O)[nH]c(-c3cccc(Cl)c3Cl)nc2n1 | Not toxic | 100 (≈ 312 µM) |  | inactive | 50 (≈ 156 µM) | inactive | 
COc1cc(-c2nc3nc(C)cc(C)c3c(=O)[nH]2)cc(OC)c1OC | Not toxic | 6.25 (≈ 18.3 µM) | 6.25 (≈ 18.3 µM) | inactive | 12.5 (≈ 36.6 µM) | inactive | 25 (≈ 73.2 µM)
Cc1cc(C)c2c(n1)NC(c1ccccc1O)NC2=O (configuration not stated) | Not toxic | 50 (≈ 186 µM) | 50 (≈ 186 µM) | inactive | 25 (≈ 92.8 µM) | inactive | 50 (≈ 186 µM)
Cc1cc(C)c2c(n1)NC(c1cc(C)c(O)c(C)c1)NC2=O (configuration not stated) | Not toxic | 3.25 (≈ 10.9 µM) | 12.5 (≈ 42 µM) | inactive | 3.25 (≈ 10.9 µM) | inactive | 6.25 (≈ 21 µM)
Cc1cc(C)c2c(=O)[nH]c(-c3ccccc3O)nc2n1 | Not toxic | 50 (≈ 187 µM) | 100 (≈ 374 µM) | inactive | 50 (≈ 187 µM) | inactive | 50 (≈ 187 µM)
Cc1cc(C)c2c(n1)NC(c1ccco1)NC2=O (configuration not stated) | Not toxic | 12.5 (≈ 51.4 µM) | 12.5 (≈ 51.4 µM) | inactive | 3.25 (≈ 13.4 µM) | inactive | 25 (≈ 103 µM)
COc1ccc(C2NC(=O)c3c(C)cc(C)nc3N2)c(OC)c1 (configuration not stated) | Not toxic | 12.5 (≈ 39.9 µM) | 12.5 (≈ 39.9 µM) | inactive | 3.25 (≈ 10.4 µM) | inactive | 25 (≈ 79.8 µM)
COc1ccc(C2NC(=O)c3c(C)cc(C)nc3N2)cc1OC (configuration not stated) | Not toxic | 3.25 (≈ 10.4 µM) | 12.5 (≈ 39.9 µM) | inactive | 3.25 (≈ 10.4 µM) | inactive | 6.25 (≈ 19.9 µM)
Cc1cc(C)c2c(=O)[nH]c(-c3ccco3)nc2n1 | Not toxic | 25 (≈ 104 µM) | 50 (≈ 207 µM) | inactive | 12.5 (≈ 51.8 µM) | inactive | 25 (≈ 104 µM)
Cc1cc(C)c2c(n1)NC(c1cccs1)NC2=O (configuration not stated) | Not toxic | 12.5 (≈ 48.2 µM) | 25 (≈ 96.4 µM) | inactive | 6.25 (≈ 24.1 µM) | inactive | 12.5 (≈ 48.2 µM)
COc1cc(-c2nc3nc(C)cc(C)c3c(=O)[nH]2)ccc1O | Not toxic | 12.5 (≈ 42 µM) | 50 (≈ 168 µM) | inactive | 25 (≈ 84.1 µM) | inactive | 50 (≈ 168 µM)
Cc1cc(C)c2c(=O)[nH]c(-c3cc(C)c(O)c(C)c3)nc2n1 | Not toxic | 6.25 (≈ 21.2 µM) | 12.5 (≈ 42.3 µM) | inactive | 12.5 (≈ 42.3 µM) | inactive | 6.25 (≈ 21.2 µM)
COc1ccc(C2NC(=O)c3c(C)cc(C)nc3N2)c(O)c1 (configuration not stated) | Not toxic | 25 (≈ 83.5 µM) | 25 (≈ 83.5 µM) | inactive | 25 (≈ 83.5 µM) | inactive | 50 (≈ 167 µM)
Cc1cc(C)c2c(=O)[nH]c(-c3cccs3)nc2n1 | Not toxic | 25 (≈ 97.2 µM) | 50 (≈ 194 µM) | inactive | 12.5 (≈ 48.6 µM) | inactive | 12.5 (≈ 48.6 µM)
COc1ccc(-c2nc3nc(C)cc(C)c3c(=O)[nH]2)cc1 | Not toxic | 12.5 (≈ 44.4 µM) | 25 (≈ 88.9 µM) | inactive | 25 (≈ 88.9 µM) | inactive | 12.5 (≈ 44.4 µM)
COc1cc(C2NC(=O)c3c(C)cc(C)nc3N2)cc(OC)c1OC (configuration not stated) | Not toxic | 1.25 (≈ 3.64 µM) | 1.25 (≈ 3.64 µM) | inactive | 3.25 (≈ 9.46 µM) | inactive | 3.25 (≈ 9.46 µM)
COc1ccc(C2NC(=O)c3c(C)cc(C)nc3N2)cc1 (configuration not stated) | Not toxic | 12.5 (≈ 44.1 µM) | 6.25 (≈ 22.1 µM) | inactive | 6.25 (≈ 22.1 µM) | inactive | 3.25 (≈ 11.5 µM)
COc1ccc(-c2nc3nc(C)cc(C)c3c(=O)[nH]2)c(OC)c1 | Not toxic | 25 (≈ 80.3 µM) | 50 (≈ 161 µM) | inactive | 12.5 (≈ 40.1 µM) | inactive | 25 (≈ 80.3 µM)
COc1ccc(-c2nc3nc(C)cc(C)c3c(=O)[nH]2)cc1OC | Not toxic | 6.25 (≈ 20.1 µM) | 12.5 (≈ 40.1 µM) | inactive | 6.25 (≈ 20.1 µM) | inactive | 12.5 (≈ 40.1 µM)
